Data on two molecules can be found in patent publication US20220354811A1, “METHODS AND COMPOSITIONS FOR MODULATING MACROPHAGES POLARIZATION” (INSERM (INSTITUT NATIONAL DE LA SANTÉ ET DE LA RECHERCHE …, priority 2019, published 2022).

One test addresses caspase-8 (Homo sapiens, UniProt Q14790). The test can be described thus: Recombinant caspase-8 activity in vitro (Ac-IETD-AMC substrate). The format is biochemical. The settings on record: recombinant caspase-8, Ac-IETD-AMC. Also on record: using active recombinant proteins of caspase-8 and caspase-3; purchased Enzo life sciences ALX-201-062. The text has this: FIG. 4. […] (A) Measures of caspase-8 activity (IETD-AMC). IETD-CHO treatment is used as positive control in the in vitro assay. The results are expressed as A.U./min and represent the mean of 3 independent experiments realized in duplicate (B) Measures of caspase-3 activity (DEVD-AMC). DEVD-CHO is used as positive control in the in vitro assay. The results are expressed as A.U./min and represent the mean of 3 independent experiments realized in duplicate. Human CSF-1 was purchased from Miltenyi (130-096-493). […] Mouse caspase-8 was from R&D Systems (AF705). HRP-conjugated rabbit anti-goat was purchased from Dako ([…]) and HRP-conjugated goat anti-rabbit was from Cell Signaling (5127). Active recombinant caspase-8 (ALX-201-062) and -3 (ALX-201-059) were from Enzo life sciences. […] Each assay (in triplicate) was performed with 10 μg of protein prepared from control or stimulated cells. […] Enzyme activities were expressed in arbitrary units (A.U.) per min and per mg of proteins. The same protocol was used with 0.25 units of active recombinant caspase-8 (Enzo, ALX-201-062) or -3 (Enzo, ALX-201-059) in each triplicate.

The test system of the next test is human primary monocytes. To be noted: literature (Jacquel et al., Blood 2009, Sci Reports 2018); cited from earlier work.

Residues, ends and D or L forms follow the SMILES beside them. *: point of attachment. Cbz = O=C(OCc1ccccc1)*; CH2F = FC*

Sequence of caspase-8 (Q14790 217-374 limits assumed): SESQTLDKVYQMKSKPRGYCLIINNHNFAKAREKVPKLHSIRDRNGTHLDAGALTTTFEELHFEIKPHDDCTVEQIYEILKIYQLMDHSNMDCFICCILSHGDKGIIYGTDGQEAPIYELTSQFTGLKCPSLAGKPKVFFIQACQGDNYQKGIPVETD
Sequence of caspase-8 (Q14790 385-479 limits assumed): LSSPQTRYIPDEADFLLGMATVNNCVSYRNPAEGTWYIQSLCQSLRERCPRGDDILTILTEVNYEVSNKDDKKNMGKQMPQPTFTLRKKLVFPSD

For `CC[C@H](C)[C@H](NC(C)=O)C(=O)N[C@@H](CCC(=O)O)C(=O)N[C@H](C(=O)N[C@H](C=O)CC(=O)O)[C@@H](C)O` [Ac-IETD-CHO] (Ac-IETD-aldehyde), the half-maximal inhibitory concentration (IC50) on caspase-8 is 0.015 µM.

Regarding `COC(=O)C[C@H](NC(=O)[C@H](C)NC(=O)[C@@H](NC(=O)OCc1ccccc1)C(C)C)C(=O)CF` [z-VAD-fmk] (Cbz-Val-Ala-Asp(OMe)-CH2F), the “effect on CSF-1-induced monocyte differentiation” value in the test with human primary monocytes was “inhibits”.
